Assay results: patent publication US20230123334A1, “AMINO LIPID COMPOUND, PREPARATION METHOD THEREFOR, AND APPLICATION THEREOF” (SHENZHEN SHENXIN BIOTECHNOLOGY CO., LTD., priority 2020, published 2023)

Each molecule was assayed on HEK293 cells (assay: Preliminary screening as DNA vectors, GFP transfection of HEK293 cells). Settings: amino lipid/DOPE liposome with 75 ng plasmid DNA (psin-EGFP-IRES-Puro); number of GFP-expressing cells divided by total nuclei (Hoechst).
Assay type: cell-based
Procedure, shortened: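 HEK293 cells in DMEM/10% FBS transfected with 75 ng EGFP plasmid per well complexed with amino lipid/DOPE liposomes in pH 5.6 sodium acetate. Hoechst nuclear stain added 20-24 h post-transfection, then cells cultured another 20-24 h. Confocal imaging gives GFP-positive cells as % of total nuclei.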

Compound | Absolute DNA transfection efficiency in HEK293 cells [%]
CCCCCCCCCCCCCCCCCCNc1nc(NCCN2CCOCC2)nc(SCCCCCCCCC)n1 [S9N18 D2] | 10.2
CCCCCCCCCCCCCCCCCCNc1nc(NCCN2CCCC2)nc(SCCCCCCCCC)n1 [S9N18 D3] | 33.8
CCCCCCCCCCCCCCCCCCNc1nc(NCCN2CCCCC2)nc(SCCCCCCCCC)n1 [S9N18 D4] | 9.0
CCCCCCCCCCCCCCCCCCNc1nc(NCCN2CCN(C)CC2)nc(SCCCCCCCCC)n1 [S9N18 D5] | 22.9
CCCCCCCCCCCCCCCCCCNc1nc(NCCCN(C)C)nc(SCCCCCCCCC)n1 [S9N18 D6] | 47.5
CCCCCCCCCCCCCCCCCCNc1nc(NCCN(CC)CC)nc(SCCCCCCCCC)n1 [S9N18 D7] | 6.0
CCCCCCCCCCCCCCCCCCNc1nc(NCCCN2CCOCC2)nc(SCCCCCCCCC)n1 [S9N18 D8] | 26.1
CCCCCCCCCCCCCCCCCCNc1nc(NCCCN2CCN(C)CC2)nc(SCCCCCCCCC)n1 [S9N18 D9] | 15.8
CCCCCCCCCCCCCCCCCCNc1nc(NCC2CCN(C)CC2)nc(SCCCCCCCCC)n1 [S9N18 D10] | 11.2
CCCCCCCCCCCCN(CCCCCCCCCCCC)c1nc(NCCN(C)C)nc(SCCCCCCCCC)n1 [S9^2N12 D1] | 0.3
CCCCCCCCCCCCN(CCCCCCCCCCCC)c1nc(NCCN2CCOCC2)nc(SCCCCCCCCC)n1 [S9^2N12 D2] | 0.0
CCCCCCCCCCCCN(CCCCCCCCCCCC)c1nc(NCCN2CCCC2)nc(SCCCCCCCCC)n1 [S9^2N12 D3] | 0.0
CCCCCCCCCCCCN(CCCCCCCCCCCC)c1nc(NCCN2CCCCC2)nc(SCCCCCCCCC)n1 [S9^2N12 D4] | 0.0
CCCCCCCCCCCCN(CCCCCCCCCCCC)c1nc(NCCN2CCN(C)CC2)nc(SCCCCCCCCC)n1 [S9^2N12 D5] | 0.3
CCCCCCCCCCCCN(CCCCCCCCCCCC)c1nc(NCCCN(C)C)nc(SCCCCCCCCC)n1 [S9^2N12 D6] | 1.1
CCCCCCCCCCCCN(CCCCCCCCCCCC)c1nc(NCCN(CC)CC)nc(SCCCCCCCCC)n1 [S9^2N12 D7] | 0.2
CCCCCCCCCCCCN(CCCCCCCCCCCC)c1nc(NCCCN2CCOCC2)nc(SCCCCCCCCC)n1 [S9^2N12 D8] | 0.0
CCCCCCCCCCCCN(CCCCCCCCCCCC)c1nc(NCCCN2CCN(C)CC2)nc(SCCCCCCCCC)n1 [S9^2N12 D9] | 0.6
CCCCCCCCCCCCN(CCCCCCCCCCCC)c1nc(NCC2CCN(C)CC2)nc(SCCCCCCCCC)n1 [S9^2N12 D10] | 1.1
CCCCCCCCCCSc1nc(NCCCCCC)nc(NCCN(C)C)n1 [S10N6 D1] | 6.9
CCCCCCCCCCSc1nc(NCCCCCC)nc(NCCN2CCOCC2)n1 [S10N6 D2] | 0.5
CCCCCCCCCCSc1nc(NCCCCCC)nc(NCCN2CCCC2)n1 [S10N6 D3] | 7.3
CCCCCCCCCCSc1nc(NCCCCCC)nc(NCCN2CCCCC2)n1 [S10N6 D4] | 5.7
CCCCCCCCCCSc1nc(NCCCCCC)nc(NCCN2CCN(C)CC2)n1 [S10N6 D5] | 7.0
CCCCCCCCCCSc1nc(NCCCCCC)nc(NCCCN(C)C)n1 [S10N6 D6] | 3.5

Compound | Absolute DNA transfection efficiency in HEK293 cells [%]
CCCCCCCCCCSc1nc(NCCCCCC)nc(NCCN(CC)CC)n1 [S10N6 D7] | 6.6
CCCCCCCCCCSc1nc(NCCCCCC)nc(NCCCN2CCOCC2)n1 [S10N6 D8] | 0.6
CCCCCCCCCCSc1nc(NCCCCCC)nc(NCCCN2CCN(C)CC2)n1 [S10N6 D9] | 5.5
CCCCCCCCCCSc1nc(NCCCCCC)nc(NCC2CCN(C)CC2)n1 [S10N6 D10] | 0.9
CCCCCCCCCCSc1nc(NCCCCCCC)nc(NCCN(C)C)n1 [S10N7 D1] | 8.2
CCCCCCCCCCSc1nc(NCCCCCCC)nc(NCCN2CCOCC2)n1 [S10N7 D2] | 2.4
CCCCCCCCCCSc1nc(NCCCCCCC)nc(NCCN2CCCC2)n1 [S10N7 D3] | 7.4
CCCCCCCCCCSc1nc(NCCCCCCC)nc(NCCN2CCCCC2)n1 [S10N7 D4] | 3.6
CCCCCCCCCCSc1nc(NCCCCCCC)nc(NCCN2CCN(C)CC2)n1 [S10N7 D5] | 7.5
CCCCCCCCCCSc1nc(NCCCCCCC)nc(NCCCN(C)C)n1 [S10N7 D6] | 6.2
CCCCCCCCCCSc1nc(NCCCCCCC)nc(NCCN(CC)CC)n1 [S10N7 D7] | 8.1
CCCCCCCCCCSc1nc(NCCCCCCC)nc(NCCCN2CCOCC2)n1 [S10N7 D8] | 2.6
CCCCCCCCCCSc1nc(NCCCCCCC)nc(NCCCN2CCN(C)CC2)n1 [S10N7 D9] | 4.5
CCCCCCCCCCSc1nc(NCCCCCCC)nc(NCC2CCN(C)CC2)n1 [S10N7 D10] | 1.1
CCCCCCCCCCSc1nc(NCCCCCCCC)nc(NCCN(C)C)n1 [S10N8 D1] | 7.1
CCCCCCCCCCSc1nc(NCCCCCCCC)nc(NCCN2CCOCC2)n1 [S10N8 D2] | 3.7
CCCCCCCCCCSc1nc(NCCCCCCCC)nc(NCCN2CCCC2)n1 [S10N8 D3] | 3.9
CCCCCCCCCCSc1nc(NCCCCCCCC)nc(NCCN2CCCCC2)n1 [S10N8 D4] | 2.1
CCCCCCCCCCSc1nc(NCCCCCCCC)nc(NCCN2CCN(C)CC2)n1 [S10N8 D5] | 13.2
CCCCCCCCCCSc1nc(NCCCCCCCC)nc(NCCCN(C)C)n1 [S10N8 D6] | 10.7
CCCCCCCCCCSc1nc(NCCCCCCCC)nc(NCCN(CC)CC)n1 [S10N8 D7] | 2.0
CCCCCCCCCCSc1nc(NCCCCCCCC)nc(NCCCN2CCOCC2)n1 [S10N8 D8] | 3.4
CCCCCCCCCCSc1nc(NCCCCCCCC)nc(NCCCN2CCN(C)CC2)n1 [S10N8 D9] | 5.6
CCCCCCCCCCSc1nc(NCCCCCCCC)nc(NCC2CCN(C)CC2)n1 [S10N8 D10] | 0.6
CCCCCCCCCCSc1nc(NCCCCCCCCC)nc(NCCN(C)C)n1 [S10N9 D1] | 7.1

Compound | Absolute DNA transfection efficiency in HEK293 cells [%]
CCCCCCCCCCSc1nc(NCCCCCCCCC)nc(NCCN2CCOCC2)n1 [S10N9 D2] | 3.7
CCCCCCCCCCSc1nc(NCCCCCCCCC)nc(NCCN2CCCC2)n1 [S10N9 D3] | 4.9
CCCCCCCCCCSc1nc(NCCCCCCCCC)nc(NCCN2CCCCC2)n1 [S10N9 D4] | 2.7
CCCCCCCCCCSc1nc(NCCCCCCCCC)nc(NCCN2CCN(C)CC2)n1 [S10N9 D5] | 11.9
CCCCCCCCCCSc1nc(NCCCCCCCCC)nc(NCCCN(C)C)n1 [S10N9 D6] | 21.0
CCCCCCCCCCSc1nc(NCCCCCCCCC)nc(NCCN(CC)CC)n1 [S10N9 D7] | 6.9
CCCCCCCCCCSc1nc(NCCCCCCCCC)nc(NCCCN2CCOCC2)n1 [S10N9 D8] | 3.4
CCCCCCCCCCSc1nc(NCCCCCCCCC)nc(NCCCN2CCN(C)CC2)n1 [S10N9 D9] | 12.0
CCCCCCCCCCSc1nc(NCCCCCCCCC)nc(NCC2CCN(C)CC2)n1 [S10N9 D10] | 4.5
CCCCCCCCCCCNc1nc(NCCN(C)C)nc(SCCCCCCCCCC)n1 [S10N11 D1] | 4.8
CCCCCCCCCCCNc1nc(NCCN2CCOCC2)nc(SCCCCCCCCCC)n1 [S10N11 D2] | 1.5
CCCCCCCCCCCNc1nc(NCCN2CCCC2)nc(SCCCCCCCCCC)n1 [S10N11 D3] | 12.6
CCCCCCCCCCCNc1nc(NCCN2CCCCC2)nc(SCCCCCCCCCC)n1 [S10N11 D4] | 8.7
CCCCCCCCCCCNc1nc(NCCN2CCN(C)CC2)nc(SCCCCCCCCCC)n1 [S10N11 D5] | 7.2
CCCCCCCCCCCNc1nc(NCCCN(C)C)nc(SCCCCCCCCCC)n1 [S10N11 D6] | 26.5
CCCCCCCCCCCNc1nc(NCCN(CC)CC)nc(SCCCCCCCCCC)n1 [S10N11 D7] | 5.0
CCCCCCCCCCCNc1nc(NCCCN2CCOCC2)nc(SCCCCCCCCCC)n1 [S10N11 D8] | 3.8
CCCCCCCCCCCNc1nc(NCCCN2CCN(C)CC2)nc(SCCCCCCCCCC)n1 [S10N11 D9] | 10.8
CCCCCCCCCCCNc1nc(NCC2CCN(C)CC2)nc(SCCCCCCCCCC)n1 [S10N11 D10] | 5.4
CCCCCCCCCCCCNc1nc(NCCN(C)C)nc(SCCCCCCCCCC)n1 [S10N12 D1] | 1.8
CCCCCCCCCCCCNc1nc(NCCN2CCOCC2)nc(SCCCCCCCCCC)n1 [S10N12 D2] | 3.7
CCCCCCCCCCCCNc1nc(NCCN2CCCC2)nc(SCCCCCCCCCC)n1 [S10N12 D3] | 7.2
CCCCCCCCCCCCNc1nc(NCCN2CCCCC2)nc(SCCCCCCCCCC)n1 [S10N12 D4] | 4.7
